In patent US6989396B2, “Tropane alkaloid multidrug resistance inhibitors from Erythroxylum pervillei and use of the same” (The Board of Trustees of the University of Illinois, priority 2001, dated 2006):
Where “and” joins values, the source holds several entries; their conditions need not be identical. Equal values may be shown once. Read-outs that look alike come from different tables or passages of the source. One block for each molecule: values may come before it.

Tests used:
[1] = system: SKVLB (ovarian adenocarcinoma, multidrug resistance); experiment: Multidrug resistance inhibition in SKVLB (pGp +ve); assay type: cell-based, human; details: Homo sapiens
[2] = system: SKOV3 (ovarian adenocarcinoma); experiment: Cytotoxicity in ovarian adenocarcinoma SKOV3 (pGp -ve); assay type: cell-based; details: Homo sapiens, SK-OV-3; read-out: IC50 SKOV3 (pGp − ve)
Method: Cytotoxicity assay. Compounds 1–9 were evaluated for cytotoxic activity against a panel of human cancer cell lines, including KB-V1 in the presence and absence of VLB, according to an established protocol (68).

CEM/VLB100 cells = experiment: MDR reversal in drug-resistant human leukemia CEM/VLB100 cells; assay type: cell-based; details: Homo sapiens
Method: (§1) Cytotoxic potential. The cytotoxic potential of test substances with KB-3, KB-V1 and KB-8-5 cells was determined as described previously (24). Briefly, various concentrations of test compounds (dissolved in 10 μl of 10% DMSO) were transferred to 96-well plates, and 190 μl aliquots of cell suspensions (5×10^4 cells/ml) were added to each well. The plates then were incubated for 72 hours at 37° C. (100% humidity with a 5% CO2 atmosphere in air), and 100 μl of cold 20% aqueous trichloroacetic acid were added to the growth medium in each well to fix the cells. The cultures were incubated at 4° C. for 30 minutes, washed, air-dried, stained with sulforhodamine B solution, and washed with 1% acetic acid. […] In each case, a zero-day control was performed by adding an equivalent number of cells to several wells and incubating at 37° C. for 30 minutes, and processing as described above. Optical density values obtained with the zero-day control were subtracted, and cell survival, relative to control (solvent-treated) cultures, was calculated. The cytotoxic potential of the compounds with CEM and CEM/VLB100 cells was determined as described by Beck et al. (30). Cells were grown in 24-well plates at a density of 5–6×10^5 cells/ml. At 48 hours, the cell number was determined using a Coulter Counter, with a channelizer to distinguish cells from debris.

KB-V1 cells [3] = experiment: In vivo hollow fiber test: KB-V1; design: species or system NCr nu/nu mice
Method: (§2) In vivo hollow fiber test. […] Confluent monolayers of KB-3, KB-V1 or KB-8-5 cells were harvested, collected by centrifugation and resuspended in conditioned medium at a concentration of 7.5×10^5 cells/ml.
(§3) Test compounds were administrated once daily by intraperitoneal injection from day 3–6 after implantation. Body weights were measure daily.
(§4) After incubating at 37° C. for 4 hours, the culture medium was aspirated and the samples were washed twice with normal saline containing 2.5% protamine sulfate solution by overnight incubation at 4° C. […] The formazan was extracted from each sample with DMSO (250 μl/well) for 4 hours at room temperature on a rotation platform.

KB-3 cells = experiment: Growth inhibitory potential (sulforhodamine B cell survival assay): KB-3; assay type: cell-based; details: Homo sapiens, KB3, 72 h, read-out: IC50 KB-3
Method: (§5) One part of a natural product drug discovery program involves monitoring the potential of plant extracts to reverse multiple drug resistance. […] To investigate the potential of plant extracts or compounds to reverse multidrug-resistance, KB-V1 cells are treated with different concentrations of plant extracts or compounds in the presence (1 μg/ml) or absence of vinblastine.
Cytotoxic potential. The cytotoxic potential of test substances with KB-3, KB-V1 and KB-8-5 cells was determined as described previously (24). Briefly, various concentrations of test compounds (dissolved in 10 μl of 10% DMSO) were transferred to 96-well plates, and 190 μl aliquots of cell suspensions (5×10^4 cells/ml) were added to each well. The plates then were incubated for 72 hours at 37° C. (100% humidity with a 5% CO2 atmosphere in air), and 100 μl of cold 20% aqueous trichloroacetic acid were added to the growth medium in each well to fix the cells. The cultures were incubated at 4° C. for 30 minutes, washed, air-dried, stained with sulforhodamine B solution, and washed with 1% acetic acid. Finally, 200 μl of 10 mM Tris base were added to each well and the optical densities were determined at 515 nm utilizing an ELISA plate reader. In each case, a zero-day control was performed by adding an equivalent number of cells to several wells and incubating at 37° C. for 30 minutes, and processing as described above. Optical density values obtained with the zero-day control were subtracted, and cell survival, relative to control (solvent-treated) cultures, was calculated. The cytotoxic potential of the compounds with CEM and CEM/VLB100 cells was determined as described by Beck et al. (30). Cells were grown in 24-well plates at a density of 5–6×10^5 cells/ml. At 48 hours, the cell number was determined using a Coulter Counter, with a channelizer to distinguish cells from debris.

KB-8-5 cells [4] = experiment: In vivo hollow fiber test: KB-8-5; design: species or system NCr nu/nu mice
Method: as §2, §3, §4

KB-V1 cells [5] = experiment: Reversal of MDR, cell survival assay: KB-V1 with or without vinblastine; assay type: cell-based, human
Method: as §5, §1

KB-8-5 cells [6] = experiment: Reversal of MDR, cell survival assay: KB-8-5 with or without colchicine; assay type: cell-based, human; details: Homo sapiens
Method: as §1

LOX IMVI, melanoma = experiment: In vitro multidrug resistance modulation (DINIB synergy): LOX IMVI; assay type: cell-based, human; details: increase of cytotoxicity of DINIB 1 × 10^−4 M; modulator μg/mL: verapamil 12.5, cyclosporin A 6.3, pervilleine B 12.5, C 3.1, D 50.0, F 25.0; <25 insignificant, >100 strong synergy
From the text: (§6) Alkaloids 5–7 and 9 were further evaluated for their efficacy as potential modulators of P-glycoprotein. This assay assessed the ability of these test compounds to increase the cytotoxicity of an agent of the MDR phenotype {4,9-dihydro-3-iso-butyl-2-methyl-1-(p-nitrophenacyl)-4,9-dioxo-1H-naphth[2-3-d]imidazolium bromide (DINIB)}, compared with an agent not of the MDR phenotype (5-flurouracil), used as a negative control (73, 74).
(§7) In vitro multidrug resistance assay.

CAKI-1, renal = experiment: In vitro multidrug resistance modulation (DINIB synergy): CAKI-1; assay type: cell-based, human; details: increase of cytotoxicity of DINIB 1 × 10^−4 M; modulator μg/mL: verapamil 12.5, cyclosporin A 6.3, pervilleine B 12.5, C 3.1, D 50.0, F 25.0; <25 insignificant, >100 strong synergy
From the text: as §6, §7

UO-31, renal = experiment: In vitro multidrug resistance modulation (DINIB synergy): UO-31; assay type: cell-based, human; details: increase of cytotoxicity of DINIB 1 × 10^−4 M; modulator μg/mL: verapamil 12.5, cyclosporin A 6.3, pervilleine B 12.5, C 3.1, D 50.0, F 25.0; <25 insignificant, >100 strong synergy
From the text: as §6, §7

HCT-15, colon = experiment: In vitro multidrug resistance modulation (DINIB synergy): HCT-15; assay type: cell-based, human; details: increase of cytotoxicity of DINIB 1 × 10^−4 M; modulator μg/mL: verapamil 12.5, cyclosporin A 6.3, pervilleine B 12.5, C 3.1, D 50.0, F 25.0; <25 insignificant, >100 strong synergy
From the text: as §6, §7

[7] = no adriamycin added, read-out: IC50 BSKVLB (pGp + ve)
[8] = summation of single-agent inhibitions
[9] = vinblastine 100 μg/kg + reversing agent 0.136 mmol/kg

IC50 ([1]; Addition of 1 μm adriamycin, read-out: IC50 SKVLB (pGp + ve), addition of adriamycin): 20 nM | IC50 [1, 7]: 14000 nM
Molecule: COc1cc2c(cc1OC)CN(CCc1ccc(NC(=O)c3cccc4c(=O)c5cccc(OC)c5[nH]c34)cc1)CC2 [GB120918, N-{4-[2-(1,2,3,4-tetrahydro-6,7-dimethoxy-2-isoquinolinyl)-ethyl]-phenyl}-9,10-dihydro-5-methoxy-9-oxo-4-acridine carboxamide, reference compound]
IC50 [2]: 8.1 µM

IC50 [1, 7]: 2200 nM
Molecule: COc1cccc2c1C(=O)c1c(O)c3c(c(O)c1C2=O)C[C@@](O)(C(=O)CO)C[C@@H]3O[C@H]1C[C@H](N)[C@H](O)[C@H](C)O1 [adriamycin, reference compound]
IC50 [2]: 0.008 µM

Molecule: COc1cccc2c1C(=O)c1c(O)c3c(c(O)c1C2=O)C[C@@](O)(C(C)=O)C[C@@H]3O[C@H]1C[C@H](N)[C@H](O)[C@H](C)O1 [daunorubicin, reference compound]
IC50 (CEM/VLB100 cells; CEM/VLB100 cells, read-out: IC50 value of the cytotoxic drug in the absence of modulator): 1000 nM

Molecule: COc1ccc(CCN(C)CCCC(C#N)(c2ccc(OC)c(OC)c2)C(C)C)cc1OC (centres unmarked) [verapamil, reference compound]
inhibition of cell growth when used in combination with vinblastine (KB-V1 cells [3]; KB-V1 or KB-8-5 cells in hollow fibers implanted into NCr nu/nu mice): less effective | Calculated inhibition (vinblastine + reversing agent as single agents), KB-V1, i.p. site (KB-V1 cells [3]; [8]): 7.4% and 6.2% | Calculated inhibition (vinblastine + reversing agent as single agents), KB-V1, s.c. site (KB-V1 cells [3]; [8]): 3.8% and 10.8% | Observed inhibition from coadministration with vinblastine, KB-V1, s.c. site (KB-V1 cells [3]; vinblastine 250 μg/kg + reversing agent 0.136 mmol/kg): 7.8 (P = 0.73) % and 13.6 (P = 0.098) % | Observed inhibition from coadministration with vinblastine, KB-V1, i.p. site (KB-V1 cells [3]; vinblastine 250 μg/kg + reversing agent 0.136 mmol/kg, i.p. injection once daily days 3–6): 60.3 (P < 0.0001) % and 56.6 (P < 0.0001) % | IC50 (KB-3 cells): 37 µM | IC50 (CEM/VLB100 cells; CEM/VLB100, 48 h, read-out: IC50 Modulator only): > 15000 nM | IC50 (CEM/VLB100 cells; CEM/VLB100, read-out: IC50 (Modulator + Daunorubicin)): 500 nM | IC50 (CEM/VLB100 cells; CEM/VLB100, read-out: IC50 (Modulator + Vinblastine)): 25 nM | Calculated inhibition (vinblastine + reversing agent as single agents), KB-8-5, i.p. site (KB-8-5 cells [4]; [8]): 5.9% | Calculated inhibition (vinblastine + reversing agent as single agents), KB-8-5, s.c. site (KB-8-5 cells [4]; [8]): 3.7% | Observed inhibition from coadministration with vinblastine, KB-8-5, i.p. site (KB-8-5 cells [4]; [9]): 52 (P < 0.0001) % | Observed inhibition from coadministration with vinblastine, KB-8-5, s.c. site (KB-8-5 cells [4]; [9]): 11.7 (P = 0.06) % | Growth inhibition, single agent, KB-8-5, s.c. site (KB-8-5 cells [4]; vinblastine 100 μg/kg, reversing agents 0.136 mmol/kg): 1.4% | Growth inhibition, single agent, KB-8-5, i.p. site (KB-8-5 cells [4]; vinblastine 100 μg/kg, reversing agents 0.136 mmol/kg, i.p. injection once daily days 3–6): 4.7% | IC50 (KB-V1 cells [5]; Homo sapiens, KB-V1, 72 h, read-out: IC50 KB-V1 (+), presence of vinblastine (1 μg/ml), 72 hours): 0.79 µM | IC50 (KB-V1 cells [5]; Homo sapiens, KB-V1, 72 h, read-out: IC50 KB-V1 (−), absence of vinblastine, 72 hours): > 44 µM | IC50 (KB-V1 cells [5]; read-out: IC50 KB-V1 (−), absence of vinblastine, 72 hours): 44 µM | IC50 (KB-8-5 cells [6]): > 44 µM

Molecule: cyclosporin A [reference compound]
synergy value at a 95% confidence level, LOX IMVI (LOX IMVI, melanoma): 72.9 | synergy value at a 95% confidence level, CAKI-1 (CAKI-1, renal): 273.3 | synergy value at a 95% confidence level, UO-31 (UO-31, renal): 642.1 | synergy value at a 95% confidence level, HCT-15 (HCT-15, colon): 719.1
